Assay results published in PMC6862209, “Deep Eutectic Solvents as New Reaction Media to Produce Alkyl-Glycosides Using Alpha-Amylase from Thermotoga maritima” (International Journal of Molecular Sciences, 2019).

What was measured:
[1] = molecular target: T1, Amy A (α-amylase from Thermotoga maritima) (Thermotoga maritima, UniProt Q9S5Y2); assay: HPLC of methyl glycosides after glucoamylase treatment; type: biochemical; settings: acceptor in alcoholysis; donor maltotriose 50 mM, 75 °C, choline chloride:urea (1:2):water
T1 construct: gene TM_1840; heterologous expression in E. coli
T1 sequence (Q9S5Y2 27-556): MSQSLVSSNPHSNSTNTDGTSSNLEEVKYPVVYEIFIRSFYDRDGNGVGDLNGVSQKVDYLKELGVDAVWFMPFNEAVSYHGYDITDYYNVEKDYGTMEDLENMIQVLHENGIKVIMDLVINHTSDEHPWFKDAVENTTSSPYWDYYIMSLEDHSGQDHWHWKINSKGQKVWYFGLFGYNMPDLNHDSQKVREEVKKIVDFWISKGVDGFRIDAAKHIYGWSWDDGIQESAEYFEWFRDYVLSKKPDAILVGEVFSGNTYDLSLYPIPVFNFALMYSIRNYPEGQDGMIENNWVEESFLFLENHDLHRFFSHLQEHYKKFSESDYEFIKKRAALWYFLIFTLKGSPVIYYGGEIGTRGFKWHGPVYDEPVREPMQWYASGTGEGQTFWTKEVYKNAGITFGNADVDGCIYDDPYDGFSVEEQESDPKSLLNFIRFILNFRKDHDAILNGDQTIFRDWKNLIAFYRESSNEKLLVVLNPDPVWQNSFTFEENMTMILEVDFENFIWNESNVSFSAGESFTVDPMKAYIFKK

[2] = molecular target: T1, Amy A (α-amylase from Thermotoga maritima); assay: HPLC of remaining maltotriose (partially purified enzyme); type: biochemical; settings: 50 mM maltotriose, 75 °C, 4 h; water:DES cosolvent series, hydrolysis to maltose and glucose

## CO [methanol]
[1]
  HPLC of methyl glycosides after glucoamylase treatment: Methyl-glucoside, methyl-maltoside, and interestingly, also methyl-maltotrioside were detected.

## OC[C@H]1O[C@H](O[C@H]2[C@H](O)[C@@H](O)[C@@H](O[C@H]3[C@H](O)[C@@H](O)C(O)O[C@@H]3CO)O[C@@H]2CO)[C@H](O)[C@@H](O)[C@@H]1O (some centres unmarked) [maltotriose]
[2]
  HPLC of remaining maltotriose (partially purified enzyme): Substrate conversion was measured as the amount of maltotriose hydrolyzed to maltose and glucose.
